The structures appear in SMILES notation. Activity calls are given as the source filed them. No cut-off for these calls is given here.

As usually defined, the IC50 is the concentration that inhibits the measured activity by half.

Experiment [1] concerns 4T1. Kind of experiment: Antitumor activity against mouse 4T1 cells xenografted mouse assessed as decrease in myeloid-derived suppressor cells (MDSCs) in peripheral blood at 50 mg/kg, iv. The format is functional. On the set-up: scale not given: the % may be the effect or the level left.
Experiment [2] relates to 4T1. As to the kind of experiment: Effect on total Ly6K levels in mouse 4T1 cells at 0.1 to 5 […] measured by Western blotting analysis. It is filed as functional, cell-based. The following applies: dose 0.1-5 mM. In general terms: Immunoblotting shows a protein as a band on a membrane.
Experiment [3] deals with 4T1. As to the kind of experiment: Antitumor activity against mouse 4T1 cells allografted in syngenetic BALB/c mouse assessed as tumor growth inhibition at 5 mg/kg, IT(Intratumoral) measured at day 3. As to conditions: time 3.0 day. It is filed as functional, organism-based.
For experiment [4], the system named is OVCAR-8. Kind of experiment: Antiproliferative activity against human OVCAR-8 cells after 24 hrs by Cell Titer Blue assay. The format is functional, cell-based. As to conditions: OVCAR-8, 24 h. Background: Resazurin is reduced to fluorescent resorufin, in cell work by metabolically active cells.
The subject of experiment [5] is 4T1. As to the kind of experiment: Induction of apoptosis in mouse 4T1 cells at 0.1 to 5 uM assessed as increase in PARP cleavage measured after 16 hrs by Western blot analysis. The following applies: dose 0.1-5 µM. It is filed as functional, cell-based.
For experiment [6], the system named is E0771. As to the kind of experiment: Antitumor immunity in C57BL/6 mouse xenografted with mouse EO771 cells assessed as reduction in tumor growth at 10 mg/kg, ip administered every 3rd day. It is filed as functional, organism-based. The following applies: time 3.0 day.
The target in experiment [7] is T1, Signal transducer and activator of transcription 1-alpha/beta (Homo sapiens) (UniProt P42224).
T1 sequence (whole entry): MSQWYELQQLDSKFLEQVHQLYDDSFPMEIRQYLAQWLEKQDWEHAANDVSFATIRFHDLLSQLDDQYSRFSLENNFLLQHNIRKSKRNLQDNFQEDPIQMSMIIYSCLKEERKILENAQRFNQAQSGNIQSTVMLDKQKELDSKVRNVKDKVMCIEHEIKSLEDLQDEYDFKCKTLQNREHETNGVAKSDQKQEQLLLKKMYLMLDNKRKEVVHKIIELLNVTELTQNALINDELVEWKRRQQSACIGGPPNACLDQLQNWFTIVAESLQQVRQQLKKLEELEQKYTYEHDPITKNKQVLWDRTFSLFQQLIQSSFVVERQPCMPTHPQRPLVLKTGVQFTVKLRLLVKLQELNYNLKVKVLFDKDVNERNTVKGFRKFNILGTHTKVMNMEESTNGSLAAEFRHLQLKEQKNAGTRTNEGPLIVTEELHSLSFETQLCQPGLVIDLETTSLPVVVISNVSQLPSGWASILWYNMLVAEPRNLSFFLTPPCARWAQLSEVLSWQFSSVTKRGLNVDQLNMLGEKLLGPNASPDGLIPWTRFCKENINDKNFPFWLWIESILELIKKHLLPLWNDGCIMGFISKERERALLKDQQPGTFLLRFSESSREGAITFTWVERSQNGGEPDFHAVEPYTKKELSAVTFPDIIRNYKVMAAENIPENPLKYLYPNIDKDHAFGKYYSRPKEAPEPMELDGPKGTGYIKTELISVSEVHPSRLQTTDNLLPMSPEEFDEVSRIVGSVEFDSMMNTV
Kind of experiment: Inhibition of IFN-gamma-induced Stat1 phopshorylation in human MDA-MB-231 cells at 2 uM measured after 30 mins by Western blot analysis. The format is cell-based.

Experiment [8] concerns 4T1. As to the kind of experiment: Induction of autophagy in mouse 4T1 cells at 0.1 to 5 uM assessed as activation of LC3B measured after 16 hrs by Western blot analysis. The following applies: dose 0.1-5 µM. It is filed as functional, cell-based.
In experiment [9] the test system is MDA-MB-231. Kind of experiment: Antiproliferative activity against human MDA-MB-231 cells after 24 hrs by Cell Titer Blue assay. It is filed as functional, cell-based. As to conditions: MDA-MB-231, 24 h.
Experiment [10] relates to MDA-MB-231. Kind of experiment: Antiproliferative activity against human MDA-MB-231 cells at 2 uM assessed as induction of cells death and measured after 24 hrs by Cell Titer Blue assay relative to control. It is filed as functional, cell-based.
The target in experiment [11] is Mothers against decapentaplegic homolog 2/homolog 3 (Homo sapiens) (UniProt P84022+Q15796). As to the kind of experiment: Inhibition of TGF-beta1-induced Smad2/3 phopshorylation in human MDA-MB-231 cells at 2 uM measured after 30 mins by Western blot analysis. It is filed as cell-based.
Experiment [12] has as its system MDA-MB-231. Kind of experiment: Antiproliferative activity against human MDA-MB-231 cells transfected with LY6K-ShRNA2 at 2 uM assessed as induction of cells death and measured after 24 hrs by Cell Titer Blue assay relative to control. It is filed as functional, cell-based.
For experiment [13], the system named is 4T1. As to the kind of experiment: Induction of apoptosis in mouse 4T1 cells at 0.1 to 5 uM assessed as activation of caspase-7 measured after 16 hrs by Western blot analysis. As to conditions: dose 0.1-5 µM. The format is functional, cell-based.
Experiment [14] deals with 4T1. As to the kind of experiment: Down regulation of RhoA in mouse 4T1 cells at 0.1 to 5 uM measured after 16 hrs by Western blot analysis. The format is functional, cell-based. The following applies: dose 0.1-5 µM.
Experiment [15] deals with Hs-578T. As to the kind of experiment: Antiproliferative activity against human Hs-578T cells after 24 hrs by Cell Titer Blue assay. It is filed as functional, cell-based.
Experiment [16] relates to BT-549. As to the kind of experiment: Antiproliferative activity against human BT-549 cells after 24 hrs by Cell Titer Blue assay. It is filed as functional, cell-based. As to conditions: BT-549, 24 h.
The test system of experiment [17] is MDA-MB-231. Kind of experiment: Down-regulation of PD-L1 expression in human MDA-MB-231 cells at 2 uM measured after 30 mins by Western blot analysis. The format is functional, cell-based.
In experiment [18] the test system is 4T1. Kind of experiment: Induction of apoptosis in mouse 4T1 cells at 0.1 to 5 uM assessed as activation of caspase-3 measured after 16 hrs by Western blot analysis. It is filed as functional, cell-based. The following applies: dose 0.1-5 µM.
The test system of experiment [19] is 4T1. Kind of experiment: Antitumor activity against mouse 4T1 cells xenografted mouse assessed as decrease in Cd11b and Gr-1-dual positive […] in peripheral blood at 50 mg/kg, iv. It is filed as functional, organism-based.
In experiment [20] the test system is 4T1. Kind of experiment: Antitumor activity against mouse 4T1 cells allografted in syngenetic BALB/c mouse assessed as tumor growth inhibition at 5 mg/kg, IT(Intratumoral) measured at day 11. The format is functional, organism-based. The following applies: time 11.0 day.
For experiment [21], the system named is MDA-MB-231. As to the kind of experiment: Antiproliferative activity against human MDA-MB-231 cells transfected with LY6K-ShRNA2 at 100 uM assessed as induction of cells death and measured after 24 hrs by Cell Titer Blue assay relative to control. It is filed as functional, cell-based.
Experiment [22] has as its system MDA-MB-231. As to the kind of experiment: Antiproliferative activity against human MDA-MB-231 cells at 100 uM assessed as induction of cells death and measured after 24 hrs by Cell Titer Blue assay relative to control. It is filed as functional, cell-based.

Sequence of Mothers against decapentaplegic homolog 2/homolog 3 (Homo sapiens) (P84022 whole entry, looked up): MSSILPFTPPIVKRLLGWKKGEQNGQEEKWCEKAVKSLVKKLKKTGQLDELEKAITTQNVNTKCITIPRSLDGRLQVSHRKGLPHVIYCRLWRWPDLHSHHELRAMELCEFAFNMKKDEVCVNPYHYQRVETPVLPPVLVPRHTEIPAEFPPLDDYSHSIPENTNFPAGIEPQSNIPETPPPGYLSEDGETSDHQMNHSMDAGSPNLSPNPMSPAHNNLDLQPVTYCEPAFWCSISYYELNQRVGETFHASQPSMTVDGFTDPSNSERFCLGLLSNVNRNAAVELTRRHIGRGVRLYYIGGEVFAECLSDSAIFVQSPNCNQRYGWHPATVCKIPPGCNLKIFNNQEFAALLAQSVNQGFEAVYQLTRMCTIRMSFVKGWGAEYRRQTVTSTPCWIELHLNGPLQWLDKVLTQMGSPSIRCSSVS
Sequence of Mothers against decapentaplegic homolog 2/homolog 3 (Homo sapiens) (Q15796 whole entry, looked up): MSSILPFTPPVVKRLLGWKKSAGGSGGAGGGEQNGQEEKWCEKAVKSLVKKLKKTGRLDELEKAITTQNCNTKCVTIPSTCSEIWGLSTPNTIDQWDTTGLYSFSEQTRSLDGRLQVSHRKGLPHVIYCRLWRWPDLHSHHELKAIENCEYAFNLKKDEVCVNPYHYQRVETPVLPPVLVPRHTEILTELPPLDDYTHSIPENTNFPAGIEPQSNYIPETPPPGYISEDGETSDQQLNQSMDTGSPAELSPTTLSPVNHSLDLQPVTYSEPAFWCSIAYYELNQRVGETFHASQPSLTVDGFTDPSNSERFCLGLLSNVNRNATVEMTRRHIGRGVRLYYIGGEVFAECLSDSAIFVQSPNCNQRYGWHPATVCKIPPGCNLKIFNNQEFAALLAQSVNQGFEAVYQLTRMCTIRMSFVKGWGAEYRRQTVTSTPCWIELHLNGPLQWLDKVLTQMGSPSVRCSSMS

`CCS(=O)(=O)Nc1ccc(Nc2c3ccccc3nc3ccccc23)c(OC)c1`: in experiment [1], the Activity is 90%. Further, the result in experiment [2], in experiment [3], in experiment [5], in [6], in [7] and in experiment [8] was Active. Also, the result in experiment [10], in [11], in experiment [13], in experiment [14], in experiment [17] and in [18] was Active. Moreover, in experiment [19], the result was Active. The IC50 was 4.17 µM in experiment [4], 5.68 µM in [9], 7.31 µM in experiment [15] and 7.65 µM in [16]. Moreover, in experiment [12], the outcome was inactive.

`Oc1ccc(Cc2ccc(Cl)cc2)c(O)c1`: the outcome in experiment [7], in experiment [11] and in experiment [17] was inactive. Also, the outcome in experiment [20], in [21] and in experiment [22] was Active.
